The text below walks through data of patent US8410020B2, “Fungicidal composition comprising a pyridylethylbenzamide derivative and a compound capable of inhibiting the methionine biosynthesis” (Bayer Cropscience AG, priority 2004, dated 2013).

Holding throughout (type): in vivo
The subject of one test is Botrytis cinerea. Put plainly: Efficacy against Botrytis cinerea on gherkin plants (preventive spray, 24 h before contamination). Particulars: grading 5 to 7 days after contamination. Here is the method:
The formulated (concentrated suspension) compounds are diluted with water to obtain the desired active material concentration Gherkin plants (Petit vert de Paris variety) in starter cups, sown on a 50/50 peat soil-pozzolana substrate and grown at 18-20° C., are treated at the cotyledon Z11 stage by spraying with the aqueous suspension described above. Plants, used as controls, are treated with an aqueous solution not containing the active material.
After 24 hours, the plants are contaminated by depositing drops of an aqueous suspension of Botrytis cinerea spores (150,000 spores per ml) on upper surface of the leaves. The spores are collected from a 15-day-old culture and are suspended in a nutrient solution composed of: • 20 g/L of gelatine • 50 g/L of cane sugar • 2 g/L of NH4NO3 • 1 g/L of KH2PO4
The contaminated gherkin plants are settled for 5/7 days in a climatic room at 15-11° C. (day/night) and at 80% relative humidity. Grading (% of efficacy) is carried out 5 to 7 days after the contamination, in comparison with the control plants.

Test [1] deals with Erysiphe graminis f. sp. hordei. In words: Efficacy against Erysiphe graminis f. sp. hordei on barley plants (preventive spray, 24 h before contamination). As to conditions: dose 500 g/ha, grading 7 to 14 days after contamination. Here is the method:
(§1) The active ingredients tested are prepared by potter homogenisation in a mixture of acetone/tween/water. This suspension is then diluted with water to obtain the desired active material concentration.
Barley plants (Express variety) in starter cups, sown on 50/50 peat soil-pozzolana substrate and grown at 12° C., are treated at the 1-leaf stage (10 cm tall) by spraying with the aqueous suspension described above.
(§2) Plants, used as controls, are treated with an aqueous solution not containing the active material.
After 24 hours, the plants are contaminated by dusting them with Erysiphe graminis f. sp. hordei spores, the dusting being carried out using diseased plants.
(§3) Grading is carried out 7 to 14 days after the contamination, in comparison with the control plants.

For test [2], the system named is Erysiphe graminis f. sp. tritici. In words: Efficacy against Erysiphe graminis on wheat plants (preventive spray, 24 h before contamination). Particulars: grading 7 to 14 days after contamination. On the procedure:
as §1
Wheat plants (Audace variety) in starter cups, sown on 50/50 peat soil-pozzolana substrate and grown at 12° C., are treated at the 1-leaf stage (10 cm tall) by spraying with the aqueous suspension described above.
as §2
After 24 hours, the plants are contaminated by dusting them with Erysiphe graminis f. sp. tritici spores, the dusting being carried out using diseased plants.
as §3

Turning to `O=C(NCCc1ncc(C(F)(F)F)cc1Cl)c1ccccc1C(F)(F)F` [Compound 1, N-{2-[3-chloro-5-(trifluoromethyl)-2-pyridinyl]ethyl}-2-trifluoromethylbenzamide], the entries for the “% Efficacy” value (in the test on Botrytis cinerea (dose 37 ppm); in test [1]; in test [2] (dose 500 g/ha)) were 45%, 40% and 35%, respectively.
Take `Cc1cc(C2CC2)nc(Nc2ccccc2)n1` [Cyprodinil, cyprodinil]: the “% Efficacy” value in test [2] (dose 31.2 g/ha) amounted to 0%.
`CC#Cc1cc(C)nc(Nc2ccccc2)n1` [Mepanipyrim, mepanipyrim]: the “% Efficacy” value in test [1] worked out at 0%.
As to `Cc1cc(C)nc(Nc2ccccc2)n1` [Pyrimethanil, pyrimethanil], the “% Efficacy” value in the test on Botrytis cinerea (dose 12.3 ppm) amounted to 90%.
